Test results from paper PMC8279406 (Journal of Medicinal Chemistry, 2021).

Key:
nectin1 = test: Integrin internalization assay, surface nectin1 control by flow cytometry; format: cell-based; conditions: J cells with nectin1, αvβ6 and αvβ8, 700 μM, 1 h at 37 °C
Experimental: Figure 5 Integrin internalization assay. J cells were transfected with a low amount (75 ng of DNA/24 well) of nectin1 plus αvβ6 integrin (300 ng of DNA/24 well) and αvβ8 integrin (300 ng of DNA/24 well). Then, 48 h after transfection, the cells were exposed to 700 μM peptides for 1 h at 37 °C. Cells derived from samples treated or not treated with peptides were incubated for 1 h at 4 °C with FAB4155A (mAbβ6), FAB4775A (mAbβ8), and R1.302 (mAbnectin1) mAbs. Samples incubated with R1.302 were washed and subsequently incubated for 1 h at 4 °C with the allophycocyanin (APC) mouse secondary antibody. Integrin and nectin1 surface expression levels were quantified as flow cytometry expression of the APC mean fluorescence intensity (MFI) of gated cells. Histograms represent the average of triplicates ± SD.
J cells were transfected with low amounts of plasmids encoding nectin1 (75 ng of DNA/24 well), plus plasmids encoding αv + β6 and αv + β8 integrins (300 ng of DNA/24 well) by means of Lipofect 2000 (Life Technologies). Then, 48 h after transfection, the cells were incubated with a single concentration of peptides (700 μM) for 1 h at 37 °C. At the end of the treatment with the peptides, half of the sample was used to visualize the expression of integrins β6 and β8 or of nectin1 used as a control in a flow cytometry assay. […]

alphaVbeta5 = alphaVbeta5 (Homo sapiens, UniProt P06756+P18084); test: alphaVbeta5 binding affinities (supplementary CSV only); conditions: unit inferred
Excerpt: Supplement jm1c00533_si_002.csv, table | column: alphaVbeta5 Binding affinities (IC50)

human αvβ8 integrin = target: T1, human αvβ8 integrin (Homo sapiens, UniProt P06756+P26012); test: LAP(TGF-β1)-αvβ8 competitive solid-phase ELISA binding assay; conditions: for IC50: competitive ELISA, immobilized LAP, soluble integrin
T1 construct: purchased R&D Systems (Biotechne brand) 4135-AV
Experimental: The affinity and selectivity of the integrin peptide ligands were ascertained according to a modified method previously reported by some of us.[33],[47] The binding was determined in a competitive solid-phase binding assay using extracellular matrix proteins, soluble integrins, and pertinent integrin-specific antibodies in an enzyme-linked immunosorbent assay (ELISA).
The experimental procedure is as described for the αvβ6 assay, except for the following modifications. The plates were coated, washed, and blocked as described above. Soluble integrin αvβ8 was mixed with an equal volume of serially diluted inhibitors resulting in a final integrin concentration of 0.25 μg/mL and 0.0032–10 μM for the inhibitors. The primary and secondary antibodies are the same as in the integrin αvβ6 assay. Visualization and analysis were performed as described above. Each plate contained a linear peptide ([…]) as the internal standard.[3]

[1] = tested on: recombinant K26GFP HSV-1 strain; test: Infection neutralization assay, transfected J cells, K26GFP HSV-1, EGFP expression; format: cell-based; conditions: for effect on HSV-1 infection (in words): J cells expressing nectin1 alone; for effect on virus entry (in words): J cells expressing nectin1 plus αvβ6 alone
Excerpt: To this aim, we selected the J cells, which are negative for gD receptors and therefore cannot be infected by HSV-1 unless gD cognate receptors (i.e., nectin1) are transgenically expressed. […] In particular, J cells were transfected with low amounts of nectin1 plasmid, plus either αvβ6 or αvβ8 integrin plasmid or both, and then infected with the recombinant K26GFP HSV-1 strain. Indeed, the capsid protein ICP26 of this strain is fused to the green fluorescent protein (GFP),[60] whose cellular expression can be used to measure the viral infection. Thus, the K26GFP entry in J cells after compound treatment was evaluated using fluorescent microscopy (Figure 4A–T), and the enhanced green fluorescent protein (EGFP) expression was quantified using flow cytometry as the mean fluorescence intensity (MFI) of gated cells (Figure 4U). […] In parallel, we also evaluated the HSV infection in J cells expressing nectin1 plus either αvβ6 or αvβ8 alone.
J cells were transfected with a low amount (75 ng of DNA/24 well) of nectin1 alone (A–E), or with the same amount of nectin1 plus αvβ6 integrin (300 ng DNA/24 well) (F–J), or plus αvβ8 integrin (300 ng DNA/24 well) (K–O), or plus both the integrin receptors (P–T). […] The cells were infected with K26GFP. The nonpenetrated virus was inactivated by an acid wash. Infectivity was measured at 16 h after infection as EGFP expression. (A)–(T) panels show the EGFP expression in each sample for a typical experiment. (U) K26GFP infection was quantified as EGFP protein expression in the flow cytometry assay as the mean fluorescence intensity (MFI) of gated cells. Histograms represent the average of triplicates ± SD.
In other experiments, J cells were transfected with low amounts of plasmids encoding nectin1 (75 ng of DNA/24 well), plus or minus plasmids encoding αv + β6 or αv + β8 integrins (300 ng of DNA/24 well) or together by means of Lipofect 2000 (Life Technologies). The total amount of transfected plasmid DNA was made equal (675 ng/24 well) by the addition of Erb-2 plasmid DNA. […] Following infection, the unpenetrated virus was inactivated by means of an acid wash (40 mM citric acid, 10 mM KCl, 135 mM NaCl, pH 3),[87] and the cells were incubated for a further 16 h in the absence of the peptides or antibody. The extent of infection was assessed through EGFP expression.
Cytofluorimetric analyses were performed using an AccuriC6 flow cytometer (Becton Dickinson). A least 10 000 events were acquired for each sample. Microphotography of the inhibition experiment was conducted using a Nikon Eclipse Ni microscope.

[2] = J cells expressing nectin1 plus both αvβ6 and αvβ8, 700 μM
[3] = J cells expressing nectin1 plus αvβ8 alone, 700 μM

Row | SMILES | surface expression of nectin1 (in words) (nectin1) | IC50 (alphaVbeta5) [nM] | fold more potent than 1 for αvβ8 (human αvβ8 integrin; 60 vs 174 nM) [fold] | IC50 (human αvβ8 integrin) [nM] | effect on HSV-1 infection (in words) ([1]; 700 μM) | effect on HSV infection (in words) [1, 2] | effect on virus entry (in words) ([1]; 700 μM) | effect on HSV infection (in words) [1, 3]
1 | CN1C(=O)[C@H](C2CCCCC2)NC(=O)[C@H](CC(=O)O)NC(=O)CNC(=O)[C@H](CCCNC(=N)N)NC(=O)CC[C@H]1C(N)=O [compound 6, [Arg-Gly-Asp-Chg-(NMe)Glu]-CONH2] | not altered | > 5000 | 3 | 60 ± 2 | only treatment with R1.302 (B) was effective | significantly reduced | the virus entry was affected | inhibitory effects were detected only in the presence of 6
2 | N=C(N)NCCC[C@@H]1NC(=O)CC[C@@H](C(N)=O)NC(=O)[C@H](C2CCCCC2)NC(=O)[C@H](CC(=O)O)NC(=O)CNC1=O [compound 1, [Arg-Gly-Asp-Chg-Glu]-CONH2] | not altered | > 5000 | – | 174 ± 31 | only treatment with R1.302 (B) was effective | only partially impaired | the virus entry was affected | inhibitory effects were detected only in the presence of 6
